Source: the supplement of paper PMC10307832

What was measured:
Assay in all cases: relative viability (nuclei count vs DMSO), 5 days (fraction); higher = more cells survive
Calu-6 = test system: Calu-6
Procedure, shortened: (§1)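 Five library-drug doses in √10 steps were combined with a fixed anchor-drug dose, or a single drug was given alone, by pin tool to lung cancer cell lines in 1536-well plates the day after seeding. Nuclei were stained and counted after 5 days. Relative viability is the nuclei count in treated wells over that in vehicle wells, taken as the median of duplicate plates.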

UMC-11 = test system: UMC-11
Procedure, shortened: as §1

NCI-H1650 = test system: NCI-H1650
Procedure, shortened: as §1

NCI-H1299 = test system: NCI-H1299
Procedure, shortened: as §1

LK-2 = test system: LK-2
Procedure, shortened: as §1

NCI-H1703 = test system: NCI-H1703
Procedure, shortened: as §1

IA-LM = test system: IA-LM
Procedure, shortened: as §1

NCI-H2009 = test system: NCI-H2009
Procedure, shortened: as §1

A549 = test system: A549
Procedure, shortened: as §1

CAL-12T = test system: CAL-12T
Procedure, shortened: as §1

A-427 = test system: A-427
Procedure, shortened: as §1

EBC-1 = test system: EBC-1
Procedure, shortened: as §1

NCI-H1734 = test system: NCI-H1734
Procedure, shortened: as §1

Q: Which relative viability (Calu-6; first compound 0.01 µM) does the source give for `CCN(CC)CCCCNc1ncc2cc(-c3cc(OC)cc(OC)c3)c(NC(=O)NC(C)(C)C)nc2n1` + C[C@@H](Oc1cc(-c2cnn(C3CCNCC3)c2)cnc1N)c1c(Cl)ccc(F)c1Cl [Crizotinib] (partner 1 µM) here?
A: 0.943

Q: What about the relative viability (Calu-6; first compound 0.03162 µM) of the same molecule?
A: 0.784

Q: What about the relative viability (Calu-6; first compound 0.1 µM) of the same molecule?
A: 0.899

Q: And the relative viability (Calu-6; first compound 0.3162 µM)?
A: 1.02

Q: And the relative viability (Calu-6; first compound 1 µM)?
A: 0.712

Q: What about the relative viability (UMC-11; first compound 0.01 µM) of the same molecule?
A: 0.691

Q: What about the relative viability (UMC-11; first compound 0.03162 µM) of the same molecule?
A: 0.459

Q: What about the relative viability (UMC-11; first compound 0.1 µM) of the same molecule?
A: 0.636

Q: What about the relative viability (UMC-11; first compound 0.3162 µM) of the same molecule?
A: 0.805

Q: What about the relative viability (UMC-11; first compound 1 µM) of the same molecule?
A: 0.554

Q: What about the relative viability (NCI-H1650; first compound 0.01 µM) of the same molecule?
A: 1.03

Q: And the relative viability (NCI-H1650; first compound 0.03162 µM)?
A: 0.989

Q: And the relative viability (NCI-H1650; first compound 0.1 µM)?
A: 0.902

Q: And the relative viability (NCI-H1650; first compound 0.3162 µM)?
A: 1.02

Q: And the relative viability (NCI-H1650; first compound 1 µM)?
A: 0.698

Q: What about the relative viability (NCI-H1299; first compound 0.01 µM) of the same molecule?
A: 1

Q: And the relative viability (NCI-H1299; first compound 0.03162 µM)?
A: 0.912

Q: What about the relative viability (NCI-H1299; first compound 0.1 µM) of the same molecule?
A: 1.02

Q: And the relative viability (NCI-H1299; first compound 0.3162 µM)?
A: 0.972

Q: What about the relative viability (NCI-H1299; first compound 1 µM) of the same molecule?
A: 0.89

Q: And the relative viability (LK-2; first compound 0.01 µM)?
A: 0.235

Q: What about the relative viability (LK-2; first compound 0.03162 µM) of the same molecule?
A: 0.25

Q: And the relative viability (LK-2; first compound 0.1 µM)?
A: 0.231

Q: And the relative viability (LK-2; first compound 0.3162 µM)?
A: 0.246

Q: And the relative viability (LK-2; first compound 1 µM)?
A: 0.258

Q: What about the relative viability (NCI-H1703; first compound 0.01 µM) of the same molecule?
A: 0.495

Q: And the relative viability (NCI-H1703; first compound 0.03162 µM)?
A: 0.584

Q: What about the relative viability (NCI-H1703; first compound 0.1 µM) of the same molecule?
A: 0.986

Q: And the relative viability (NCI-H1703; first compound 0.3162 µM)?
A: 0.586

Q: What about the relative viability (NCI-H1703; first compound 1 µM) of the same molecule?
A: 0.799

Q: And the relative viability (IA-LM; first compound 0.01 µM)?
A: 0.766

Q: What about the relative viability (IA-LM; first compound 0.03162 µM) of the same molecule?
A: 0.629

Q: What about the relative viability (IA-LM; first compound 0.1 µM) of the same molecule?
A: 1.02

Q: And the relative viability (IA-LM; first compound 0.3162 µM)?
A: 0.97

Q: What about the relative viability (IA-LM; first compound 1 µM) of the same molecule?
A: 0.932

Q: And the relative viability (NCI-H2009; first compound 0.01 µM)?
A: 1.1

Q: What about the relative viability (NCI-H2009; first compound 0.03162 µM) of the same molecule?
A: 1.08

Q: And the relative viability (NCI-H2009; first compound 0.1 µM)?
A: 1.13

Q: And the relative viability (NCI-H2009; first compound 0.3162 µM)?
A: 1.11

Q: And the relative viability (NCI-H2009; first compound 1 µM)?
A: 0.953

Q: What about the relative viability (A549; first compound 0.01 µM) of the same molecule?
A: 0.782

Q: And the relative viability (A549; first compound 0.03162 µM)?
A: 0.854

Q: And the relative viability (A549; first compound 0.1 µM)?
A: 0.961

Q: What about the relative viability (A549; first compound 0.3162 µM) of the same molecule?
A: 0.805

Q: And the relative viability (A549; first compound 1 µM)?
A: 0.655

Q: And the relative viability (CAL-12T; first compound 0.01 µM)?
A: 0.809

Q: What about the relative viability (CAL-12T; first compound 0.03162 µM) of the same molecule?
A: 0.612

Q: What about the relative viability (CAL-12T; first compound 0.1 µM) of the same molecule?
A: 0.553

Q: What about the relative viability (CAL-12T; first compound 0.3162 µM) of the same molecule?
A: 0.666

Q: What about the relative viability (CAL-12T; first compound 1 µM) of the same molecule?
A: 0.533

Q: And the relative viability (A-427; first compound 0.01 µM)?
A: 0.886

Q: And the relative viability (A-427; first compound 0.03162 µM)?
A: 0.812

Q: What about the relative viability (A-427; first compound 0.1 µM) of the same molecule?
A: 0.875

Q: And the relative viability (A-427; first compound 0.3162 µM)?
A: 0.909

Q: What about the relative viability (A-427; first compound 1 µM) of the same molecule?
A: 0.727

Q: What about the relative viability (EBC-1; first compound 0.01 µM) of the same molecule?
A: 0.209

Q: And the relative viability (EBC-1; first compound 0.03162 µM)?
A: 0.189

Q: What about the relative viability (EBC-1; first compound 0.1 µM) of the same molecule?
A: 0.242

Q: What about the relative viability (EBC-1; first compound 0.3162 µM) of the same molecule?
A: 0.213

Q: What about the relative viability (EBC-1; first compound 1 µM) of the same molecule?
A: 0.187

Q: And the relative viability (NCI-H1734; first compound 0.01 µM)?
A: 0.652

Q: And the relative viability (NCI-H1734; first compound 0.03162 µM)?
A: 0.647

Q: And the relative viability (NCI-H1734; first compound 0.1 µM)?
A: 0.807

Q: And the relative viability (NCI-H1734; first compound 0.3162 µM)?
A: 0.719

Q: What about the relative viability (NCI-H1734; first compound 1 µM) of the same molecule?
A: 0.667

Q: `O=c1cc(N2CCOCC2)oc2c(-c3cccc4c3sc3ccccc34)cccc12` + CS(=O)(=O)CCNCc1ccc(-c2ccc3ncnc(Nc4ccc(OCc5cccc(F)c5)c(Cl)c4)c3c2)o1 [Lapatinib] (partner 2 µM) was tested. Which relative viability (Calu-6; first compound 0.01 µM) did it give?
A: 1.08

Q: And the relative viability (Calu-6; first compound 0.03162 µM)?
A: 1.11

Q: What about the relative viability (Calu-6; first compound 0.1 µM) of the same molecule?
A: 1.17

Q: What about the relative viability (Calu-6; first compound 0.3162 µM) of the same molecule?
A: 1.08

Q: And the relative viability (Calu-6; first compound 1 µM)?
A: 1.05

Q: And the relative viability (UMC-11; first compound 0.01 µM)?
A: 0.997

Q: And the relative viability (UMC-11; first compound 0.03162 µM)?
A: 1.03

Q: What about the relative viability (UMC-11; first compound 0.1 µM) of the same molecule?
A: 1.17

Q: What about the relative viability (UMC-11; first compound 0.3162 µM) of the same molecule?
A: 0.995

Q: And the relative viability (UMC-11; first compound 1 µM)?
A: 0.951

Q: What about the relative viability (NCI-H1650; first compound 0.03162 µM) of the same molecule?
A: 0.831

Q: And the relative viability (NCI-H1650; first compound 0.1 µM)?
A: 0.775

Q: What about the relative viability (NCI-H1650; first compound 0.3162 µM) of the same molecule?
A: 0.756

Q: And the relative viability (NCI-H1650; first compound 1 µM)?
A: 0.75

Q: And the relative viability (NCI-H1299; first compound 0.01 µM)?
A: 0.957

Q: And the relative viability (NCI-H1299; first compound 0.03162 µM)?
A: 0.957

Q: What about the relative viability (NCI-H1299; first compound 0.1 µM) of the same molecule?
A: 0.969

Q: And the relative viability (NCI-H1299; first compound 0.3162 µM)?
A: 0.961

Q: What about the relative viability (NCI-H1299; first compound 1 µM) of the same molecule?
A: 0.964

Q: What about the relative viability (LK-2; first compound 0.01 µM) of the same molecule?
A: 0.832

Q: And the relative viability (LK-2; first compound 0.03162 µM)?
A: 0.986

Q: What about the relative viability (LK-2; first compound 0.1 µM) of the same molecule?
A: 1.12

Q: And the relative viability (LK-2; first compound 0.3162 µM)?
A: 0.909

Q: What about the relative viability (LK-2; first compound 1 µM) of the same molecule?
A: 1.07

Q: What about the relative viability (NCI-H1703; first compound 0.01 µM) of the same molecule?
A: 1.36

Q: What about the relative viability (NCI-H1703; first compound 0.03162 µM) of the same molecule?
A: 0.815

Q: And the relative viability (NCI-H1703; first compound 0.1 µM)?
A: 1.27

Q: And the relative viability (NCI-H1703; first compound 0.3162 µM)?
A: 1.17

Q: What about the relative viability (NCI-H1703; first compound 1 µM) of the same molecule?
A: 1.01

Q: What about the relative viability (IA-LM; first compound 0.01 µM) of the same molecule?
A: 0.764

Q: What about the relative viability (IA-LM; first compound 0.03162 µM) of the same molecule?
A: 0.582

Q: And the relative viability (IA-LM; first compound 0.1 µM)?
A: 0.663

Q: And the relative viability (IA-LM; first compound 0.3162 µM)?
A: 0.86

Q: And the relative viability (IA-LM; first compound 1 µM)?
A: 0.602

Q: What about the relative viability (NCI-H2009; first compound 0.01 µM) of the same molecule?
A: 0.906

Q: And the relative viability (NCI-H2009; first compound 0.03162 µM)?
A: 0.915

Q: And the relative viability (NCI-H2009; first compound 0.1 µM)?
A: 0.895

Q: What about the relative viability (NCI-H2009; first compound 0.3162 µM) of the same molecule?
A: 0.94

Q: What about the relative viability (NCI-H2009; first compound 1 µM) of the same molecule?
A: 1.15

Q: And the relative viability (A549; first compound 0.01 µM)?
A: 0.964

Q: What about the relative viability (A549; first compound 0.03162 µM) of the same molecule?
A: 0.931

Q: And the relative viability (A549; first compound 0.1 µM)?
A: 0.997

Q: What about the relative viability (A549; first compound 0.3162 µM) of the same molecule?
A: 0.979

Q: What about the relative viability (A549; first compound 1 µM) of the same molecule?
A: 0.968

Q: And the relative viability (CAL-12T; first compound 0.01 µM)?
A: 0.707

Q: What about the relative viability (CAL-12T; first compound 0.1 µM) of the same molecule?
A: 0.662

Q: What about the relative viability (CAL-12T; first compound 0.3162 µM) of the same molecule?
A: 0.671

Q: What about the relative viability (CAL-12T; first compound 1 µM) of the same molecule?
A: 0.691

Q: And the relative viability (A-427; first compound 0.01 µM)?
A: 1.12

Q: What about the relative viability (A-427; first compound 0.03162 µM) of the same molecule?
A: 1.01

Q: What about the relative viability (A-427; first compound 0.1 µM) of the same molecule?
A: 0.982

Q: And the relative viability (A-427; first compound 0.3162 µM)?
A: 1.01

Q: What about the relative viability (A-427; first compound 1 µM) of the same molecule?
A: 1.05

Q: What about the relative viability (EBC-1; first compound 0.01 µM) of the same molecule?
A: 0.227

Q: What about the relative viability (EBC-1; first compound 0.03162 µM) of the same molecule?
A: 0.207

Q: And the relative viability (EBC-1; first compound 0.1 µM)?
A: 0.246

Q: What about the relative viability (EBC-1; first compound 0.3162 µM) of the same molecule?
A: 0.237

Q: What about the relative viability (EBC-1; first compound 1 µM) of the same molecule?
A: 0.227

Q: And the relative viability (NCI-H1734; first compound 0.01 µM)?
A: 1.12

Q: What about the relative viability (NCI-H1734; first compound 0.03162 µM) of the same molecule?
A: 1.03

Q: What about the relative viability (NCI-H1734; first compound 0.1 µM) of the same molecule?
A: 1.12

Q: What about the relative viability (NCI-H1734; first compound 0.3162 µM) of the same molecule?
A: 1.04

Q: What about the relative viability (NCI-H1734; first compound 1 µM) of the same molecule?
A: 0.927
